Series [1] has as its target ALK6 (BMPR1B) (Homo sapiens (Human), UniProt O00238). Description: In vitro kinase assay, ALK6. In kind it is biochemical. To be noted: 10 μM ATP; read-out: Inhibition of ALK6 IC50.
A short description of series [2]: Pharmacokinetics and bioavailability in male mice after a single dose. Type of series: in vivo. To be noted: for AUC(0-t) / Cmax / clearance / half-life / Tmax / bioavailability: mouse, plasma; for half-life: read-out: Terminal t1/2 (converted).
Series [3] can be described thus: Plasma and brain concentrations at 0.5 and 1 h in mice. Type of series: in vivo. To be noted: male, mouse.
Series [4] has as its target ALK3 (BMPR1A) (Homo sapiens (Human), UniProt P36894). Description: In vitro kinase assay, ALK3. Type of series: biochemical. As to conditions: read-out: Inhibition of ALK3 IC50.
For series [5], the target named is ALK2 (ACVR1) (Homo sapiens (Human), UniProt Q04771). Description: In vitro kinase assay, ALK2. In kind it is biochemical. As to conditions: read-out: Inhibition of ALK2 IC50.
The target in series [6] is ALK1 (ACVRL1) (Homo sapiens (Human), UniProt P37023). Put plainly: In vitro kinase assay, ALK1. In kind it is biochemical. To be noted: 10 μM ATP; read-out: Inhibition of ALK1 IC50.
[7] abbreviates: brain, IV (2 mg/kg), read-out: Brain concentration.
Setting [8] is: brain, PO (10 mg/kg), read-out: Brain concentration.
[9] abbreviates: plasma, IV (2 mg/kg), read-out: Plasma concentration.
Where [10] appears, read: plasma, PO (10 mg/kg), read-out: Plasma concentration.
Setting [11] is: brain, 2 mg/kg, IV, read-out: Brain Concentration.
[12] abbreviates: brain, 10 mg/kg, PO, read-out: Brain Concentration.
[13] abbreviates: plasma, 2 mg/kg, IV, read-out: Plasma Concentration.
The mark [14] stands for this setting: plasma, 10 mg/kg, PO, read-out: Plasma Concentration.

The values that follow come from patent US10030004B2, “Compounds and methods of use” (Medivation Technologies LLC, priority 2014, dated 2018).

pIC50: −log10 of the molar value. Like-named read-outs stand apart in the source and are kept apart here. Where only a bound is given, the exact number is not on record here.

ALK1 (ACVRL1), sequence (P37023 22-503): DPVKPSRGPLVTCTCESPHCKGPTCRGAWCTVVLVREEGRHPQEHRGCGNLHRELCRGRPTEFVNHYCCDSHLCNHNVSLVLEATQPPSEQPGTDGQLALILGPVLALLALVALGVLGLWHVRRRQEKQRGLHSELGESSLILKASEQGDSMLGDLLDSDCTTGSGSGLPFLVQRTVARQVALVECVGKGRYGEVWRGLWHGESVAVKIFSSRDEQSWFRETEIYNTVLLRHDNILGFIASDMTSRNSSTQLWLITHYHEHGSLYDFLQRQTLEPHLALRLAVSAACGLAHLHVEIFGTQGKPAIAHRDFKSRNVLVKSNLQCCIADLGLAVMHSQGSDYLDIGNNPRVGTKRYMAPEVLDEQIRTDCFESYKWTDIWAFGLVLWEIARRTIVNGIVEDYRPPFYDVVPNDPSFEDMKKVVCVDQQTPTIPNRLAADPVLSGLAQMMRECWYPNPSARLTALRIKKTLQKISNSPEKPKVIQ
ALK2 (ACVR1), sequence (Q04771 21-509): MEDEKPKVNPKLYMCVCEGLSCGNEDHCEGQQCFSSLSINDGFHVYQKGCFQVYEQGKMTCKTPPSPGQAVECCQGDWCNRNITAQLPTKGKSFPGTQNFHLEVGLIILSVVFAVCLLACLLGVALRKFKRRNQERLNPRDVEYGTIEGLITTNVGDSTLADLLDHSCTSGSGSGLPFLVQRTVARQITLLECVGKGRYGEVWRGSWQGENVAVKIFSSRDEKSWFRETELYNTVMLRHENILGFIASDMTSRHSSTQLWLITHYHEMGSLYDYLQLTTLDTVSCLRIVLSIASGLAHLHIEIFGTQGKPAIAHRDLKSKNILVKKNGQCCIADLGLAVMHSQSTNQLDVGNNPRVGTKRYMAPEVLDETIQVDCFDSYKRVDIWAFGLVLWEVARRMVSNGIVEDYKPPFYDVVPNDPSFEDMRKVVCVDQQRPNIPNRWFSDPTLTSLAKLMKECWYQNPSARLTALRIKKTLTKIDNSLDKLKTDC
ALK6 (BMPR1B), sequence (O00238 14-502): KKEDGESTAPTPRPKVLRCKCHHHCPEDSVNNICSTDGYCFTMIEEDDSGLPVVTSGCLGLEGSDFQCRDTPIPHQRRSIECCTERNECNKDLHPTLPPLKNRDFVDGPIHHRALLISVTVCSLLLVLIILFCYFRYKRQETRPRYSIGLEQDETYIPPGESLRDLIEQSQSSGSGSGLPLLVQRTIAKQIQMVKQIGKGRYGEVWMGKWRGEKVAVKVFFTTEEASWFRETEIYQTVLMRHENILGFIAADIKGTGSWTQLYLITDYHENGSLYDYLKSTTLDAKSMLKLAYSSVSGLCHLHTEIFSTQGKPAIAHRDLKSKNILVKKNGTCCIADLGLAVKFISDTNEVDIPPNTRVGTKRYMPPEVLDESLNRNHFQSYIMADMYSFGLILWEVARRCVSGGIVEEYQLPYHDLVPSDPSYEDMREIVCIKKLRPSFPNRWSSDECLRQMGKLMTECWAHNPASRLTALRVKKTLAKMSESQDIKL
ALK3 (BMPR1A), sequence (P36894 24-532): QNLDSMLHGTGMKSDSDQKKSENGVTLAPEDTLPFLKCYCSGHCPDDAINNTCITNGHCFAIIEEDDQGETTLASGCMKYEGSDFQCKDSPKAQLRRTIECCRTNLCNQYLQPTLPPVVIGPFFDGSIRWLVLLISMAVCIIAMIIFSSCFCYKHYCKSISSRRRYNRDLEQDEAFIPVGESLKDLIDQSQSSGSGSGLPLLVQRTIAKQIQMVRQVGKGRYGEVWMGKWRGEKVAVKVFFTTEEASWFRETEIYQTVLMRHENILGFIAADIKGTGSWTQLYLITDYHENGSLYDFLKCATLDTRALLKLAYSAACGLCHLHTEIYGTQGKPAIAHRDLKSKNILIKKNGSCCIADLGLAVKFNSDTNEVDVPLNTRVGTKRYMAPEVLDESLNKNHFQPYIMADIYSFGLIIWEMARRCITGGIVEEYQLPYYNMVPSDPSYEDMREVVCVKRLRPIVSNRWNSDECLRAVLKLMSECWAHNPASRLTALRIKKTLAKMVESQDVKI

The pIC50 is −log10 of the IC50, conventionally taken in molar units. As usually defined, the AUC(0-t) is the area under the concentration-time curve up to a stated or last time point. For orientation: Cmax means the maximum level reached in the sampled fluid or tissue. In general, clearance refers to the volume of plasma or blood freed of the substance per unit of time. Broadly, the Tmax is the time at which the peak concentration occurs. A word on the bioavailability: it is dose-corrected exposure relative to a reference, in per cent. Low values mean little systemic uptake, high ones much systemic uptake. On to `C=C(C)c1cnc(-c2cc(Cl)ccc2F)cc1Nc1ccncc1C(=O)NC[C@H](C)O` (single isomer, unassigned) [3a], for which the pIC50 in series [1] was under 4.00. In series [2] (intravenous, 2 mg/kg), this compound showed a V of 1.29 L/kg, an AUC(0-t) of 2.56 µM·h, a Cmax of 602 nM and a clearance of 12.8 mL/min/kg. The half-life in series [2] (intravenous, 2 mg/kg) was 3.86 h. Moreover, in series [2] (oral, 10 mg/kg), the AUC(0-t) was determined as 10.5 µM·h, the Cmax turned out to be 1650 nM, the Tmax amounted to 0.25 h and the bioavailability was 82%. Also, the half-life in series [2] (oral, 10 mg/kg) was 3.85 h. Further, in series [3] (setting [7]), the concentration at 0.5 h turned out to be 173 ng/mL and the concentration at 1 h worked out at 168 ng/mL. Further, in series [3] (setting [8]), the concentration at 0.5 h came to 305 ng/mL and the concentration at 1 h stood at 406 ng/mL. Also, in series [3] (setting [9]), the concentration at 0.5 h amounted to 432 ng/mL and the concentration at 1 h is 365 ng/mL. Further, in series [3] (setting [10]), the concentration at 0.5 h turned out to be 1280 ng/mL and the concentration at 1 h came to 1250 ng/mL.
Take `COc1cnc(-c2cc(Cl)ccc2F)cc1Nc1ccncc1C(=O)NC[C@H](C)O` (single isomer, unassigned) [13a]: the pIC50 in series [4] was under 4.00. Moreover, in series [2] (intravenous, 2 mg/kg), the V was 3.72 L/kg, the AUC(0-t) was 1.56 µM·h, the highest level (Cmax) was 1420 nM and the clearance was 20.7 mL/min/kg. In series [2] (intravenous, 2 mg/kg), the half-life is 2.09 h. Besides, in series [2] (oral, 10 mg/kg), the area under the curve AUC(0-t) was 5.64 µM·h, the Cmax was determined as 1600 nM, the Tmax was 0.25 h and the bioavailability was 72.3%. In addition, in series [2] (oral, 10 mg/kg), the half-life was 2.85 h.
Turning to `C[C@H](O)CNC(=O)c1cnccc1Nc1cc(-c2cc(Cl)ccc2F)ncc1N(C)C` (single isomer, unassigned) [16a], in series [1], the pIC50 is under 3.00. In series [2] (intravenous, 2 mg/kg), the V was found to be 0.967 L/kg, the AUC(0-t) worked out at 4.41 µM·h, the peak level (Cmax) was 3400 nM and the clearance was 17 mL/min/kg. Also, the half-life in series [2] (intravenous, 2 mg/kg) is 0.655 h. Moreover, in series [2] (oral, 10 mg/kg), the AUC(0-t) was determined as 7.5 µM·h, the concentration peaked (Cmax) at 3420 nM, the Tmax was 0.5 h and the bioavailability turned out to be 34.1%. Besides, the half-life in series [2] (oral, 10 mg/kg) was 2.36 h. In series [3] (setting [11]), the concentration at 0.5 h is 48 nM and the concentration at 1 h was found to be 19 nM. Moreover, in series [3] (setting [12]), the concentration at 0.5 h is 48 nM and the concentration at 1 h came to 25 nM. In series [3] (setting [13]), the concentration at 0.5 h is 3040 nM and the concentration at 1 h stood at 1230 nM. For the same compound, in series [3] (setting [14]), the concentration at 0.5 h was determined as 3420 nM and the concentration at 1 h stood at 1690 nM.
In the case of `C=C(C)c1c(Nc2ccncc2C(=O)NC[C@H](C)O)cc(-c2cc(Cl)ccc2F)nc1N` (single isomer, unassigned) [23a], the pIC50 in series [4] (10 μM ATP) is under 4.00. In addition, the negative logarithm of the IC50 (pIC50) in series [1] was under 4.00. For the same compound, in series [2] (intravenous, 2 mg/kg), the AUC(0-t) came out at 1.11 µM·h, the peak level (Cmax) was 2560 nM and the clearance is 66 mL/min/kg. Also, in series [2] (oral, 10 mg/kg), the AUC(0-t) was determined as 0.907 µM·h, the Cmax came to 612 nM, the Tmax is 0.25 h and the bioavailability is 16.4%. Also, the negative logarithm of the IC50 (pIC50) in series [5] (10 μM ATP) was under 4.00.
For the compound `C=C(C)c1cnc(-c2cc(Cl)ccc2F)cc1Nc1ccncc1C(=O)N[C@@H](CC)CO` (single isomer, unassigned) [24a], the pIC50 in series [4] (10 μM ATP), in series [6], in series [1] and in series [5] (10 μM ATP) was under 4.00 throughout.
Turning to `C=C(C)c1cnc(-c2cc(Cl)ccc2F)cc1Nc1ncncc1C(=O)NC[C@H](C)O` [4a, (S)-4-(2-(5-chloro-2-fluorophenyl)-5-(prop-1-en-2-yl)pyridin-4-ylamino)-N-(2-hydroxypropyl)pyrimidine-5-carboxamide], in series [5] (10 μM ATP), the pIC50 was 4.97.
For `C=C(C)c1cnc(-c2cc(Cl)ccc2F)cc1Nc1ccncc1C(=O)N[C@@H](C)CO` [7a, (S)-4-(2-(5-chloro-2-fluorophenyl)-5-(prop-1-en-2-yl)pyridin-4-ylamino)-N-(1-hydroxypropan-2-yl)nicotinamide], the pIC50 is under 4.00 in series [4] (10 μM ATP) and 4.96 in series [5] (10 μM ATP).
For `C=C(C)c1cnc(-c2cc(Cl)ccc2F)cc1Nc1ccncc1C(=O)NC(C)(C)CO` [compound 8, 4-[[2-(5-chloro-2-fluoro-phenyl)-5-isopropenyl-4-pyridyl]amino]-N-(2-hydroxy-1,1-dimethyl-ethyl)pyridine-3-carboxamide], the pIC50 in series [4] (10 μM ATP) was under 4.00. Further, the pIC50 in series [6] is under 4.00. For the same compound, in series [2] (intravenous, 2 mg/kg), the V turned out to be 14.9 L/kg, the AUC(0-t) amounted to 0.709 µM·h, the highest level (Cmax) was 1240 nM and the clearance was 103 mL/min/kg. Moreover, in series [2] (intravenous, 2 mg/kg), the half-life was 1.68 h. Moreover, in series [2] (oral, 10 mg/kg), the exposure AUC(0-t) was determined as 1.31 µM·h, the Cmax came out at 1060 nM, the Tmax is 0.25 h and the bioavailability was determined as 36.9%. In series [2] (oral, 10 mg/kg), the half-life was 1.26 h. Further, the pIC50 in series [5] is under 4.00.
As to `CC(C)c1cnc(-c2cc(Cl)ccc2F)cc1Nc1ccncc1C(=O)NC(CO)CO` [compound 22, 4-[[2-(5-chloro-2-fluoro-phenyl)-5-isopropyl-4-pyridyl]amino]-N-[2-hydroxy-1-(hydroxymethyl)ethyl]pyridine-3-carboxamide], in series [2] (intravenous, 2 mg/kg), the V is reported as 2.43 L/kg, the AUC(0-t) was 3.77 µM·h, the highest level (Cmax) was 2460 nM and the half-life is 1.53 h. For the same compound, in series [2] (oral, 10 mg/kg), the AUC(0-t) came to 16.2 µM·h, the peak level (Cmax) was 7070 nM, the Tmax came to 0.5 h and the bioavailability was determined as 86.6%. Further, in series [3] (setting [11]), the concentration at 0.5 h was 7 nM and the concentration at 1 h worked out at 5 nM. Further, in series [3] (setting [12]), the concentration at 0.5 h worked out at 20 nM and the concentration at 1 h came to 15 nM. Also, in series [3] (setting [13]), the concentration at 0.5 h is 1690 nM and the concentration at 1 h worked out at 967 nM. In series [3] (setting [14]), the concentration at 0.5 h was 7070 nM and the concentration at 1 h turned out to be 3530 nM.
For the compound `C=C(C)c1cnc(-c2cc(Cl)ccc2F)cc1Nc1ccncc1C(=O)NCCO` [compound 26, 4-[[2-(5-chloro-2-fluoro-phenyl)-5-isopropenyl-4-pyridyl]amino]-N-(2-hydroxyethyl)pyridine-3-carboxamide], the pIC50 in series [4] (10 μM ATP) is under 4.00. Further, in series [1], the pIC50 was under 4.00. In series [2] (intravenous, 2 mg/kg), this compound gave a V of 6.21 L/kg, an AUC(0-t) of 1.76 µM·h, a Cmax of 3000 nM and a clearance of 44.3 mL/min/kg. Further, the half-life in series [2] (intravenous, 2 mg/kg) is 1.62 h. Moreover, in series [2] (oral, 10 mg/kg), the AUC(0-t) was determined as 2.36 µM·h, the Cmax turned out to be 1290 nM, the Tmax is 0.5 h and the bioavailability came to 26.9%. The half-life in series [2] (oral, 10 mg/kg) is 1.66 h. Moreover, the pIC50 in series [5] (10 μM ATP) is under 4.00.
`CC(C)c1cnc(-c2ncccc2F)cc1Nc1ccnc2[nH]ccc12` [compound 29, 2-(3-fluoropyridin-2-yl)-5-(propan-2-yl)-N-{1H-pyrrolo[2,3-b]pyridin-4-yl}pyridin-4-amine]: the pIC50 was 4.82 in series [1] and 4.22 in series [5].
For `CC(C)c1cnc(-c2ncccc2F)cc1Nc1ncnc2[nH]ccc12` [compound 30, 2-(3-fluoropyridin-2-yl)-5-(propan-2-yl)-N-{7H-pyrrolo[2,3-d]pyrimidin-4-yl}pyridin-4-amine], the pIC50 was under 5.00 in series [4] (10 μM ATP), 4.87 in series [1] and 4.14 in series [5] (10 μM ATP).
For `Fc1ccc(Cl)cc1-c1cc(Nc2ccnc3[nH]ccc23)c(C2CC2)cn1` [compound 32, 2-(5-chloro-2-fluorophenyl)-5-cyclopropyl-N-{1H-pyrrolo[2,3-b]pyridin-4-yl}pyridin-4-amine], the pIC50 is 5.48 in series [4] (10 μM ATP) and 5.23 in series [5].
On to `C=C(C)c1cnc(-c2cc(Cl)ccc2F)cc1Nc1ccncc1C(=O)N1CCCC1` [compound 34, 2-(5-chloro-2-fluorophenyl)-5-(prop-1-en-2-yl)-N-[3-(pyrrolidine-1-carbonyl)pyridin-4-yl]pyridin-4-amine], for which the pIC50 in series [4] (10 μM ATP), in series [6] and in series [5] (10 μM ATP) was under 5.00 throughout.
Consider `CC(C)c1cnc(-c2cc(Cl)ccc2F)cc1Nc1ncnc2[nH]ccc12` [compound 35, 2-(5-chloro-2-fluorophenyl)-5-(propan-2-yl)-N-{7H-pyrrolo[2,3-d]pyrimidin-4-yl}pyridin-4-amine], for which the pIC50 in series [5] is 5.26.
Turning to `CC(C)c1cnc(-c2cc(Cl)ccc2F)cc1Nc1ncnc2[nH]ncc12` [compound 36, 2-(5-chloro-2-fluorophenyl)-5-(propan-2-yl)-N-{1H-pyrazolo[3,4-d]pyrimidin-4-yl}pyridin-4-amine], the pIC50 was under 5.00 in series [4] and 5.05 in series [5].
